Active and inactive are the calls of the source. No cut-off for these calls is given here.

Series [1] is described as follows: (§1) Antiproliferative activity against HSMC expressing Id-protein assessed as reduction in cell growth after 72 hrs by Coulter counting. The format is functional, Homo sapiens. Details: scale not given: the % may be the effect or the level left.
The target in series [2] is T1, DNA-binding protein inhibitor ID-1 (Homo sapiens) (UniProt P41134).
T1 sequence (whole entry): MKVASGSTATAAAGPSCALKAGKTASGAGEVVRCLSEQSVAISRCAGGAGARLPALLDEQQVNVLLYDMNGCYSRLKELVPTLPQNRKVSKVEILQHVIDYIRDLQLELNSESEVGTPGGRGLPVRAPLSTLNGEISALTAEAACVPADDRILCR
Kind of series: Decrease in ID1-protein level in HSMC by Western blotting.

In series [3] the target is T1, DNA-binding protein inhibitor ID-1 (Homo sapiens). Description: Inhibition of ID1-protein in HSMC assessed as increase in alpha-actin protein level by Western blotting.
The target is the same in series [4]. Kind of series: Binding affinity to ID-HLH domain by CD spectroscoy.
Series [5] shares this target. Description: Inhibition of ID1-protein in HSMC assessed as increase in alpha-actin mRNA level by real time PCR.
The subject of the next series is HSMC. The series is described as §1. It is filed as functional. The conditions noted are these: Homo sapiens.
The nature of series [6]: Drug uptake by HSMC assessed as mean fluorescence index after 72 hrs by FACS. It is filed as ADME. The settings on record: human.
Series [7] is described as follows: Perinuclear localization in HSMC after 6 hrs by fluorescence microscopy. It is filed as ADME, cell-based. The conditions noted are these: human.
Series [8] can be described thus: Inhibition of PDGF-stimulated HSMC migration after 8 hrs by Boyden chamber assay. It is filed as functional, Homo sapiens. The arrangement: scale not given: the % may be the effect or the level left.

With `CC[C@H](C)[C@H](NC(=O)[C@H](CCC(=O)O)NC(=O)[C@@H](NC(=O)[C@H](CCCCN)NC(=O)[C@@H]1CC[C@H]([C@@H](NC(=O)c2ccccc2)C(=O)N[C@@H](CCCCN)C(=O)N[C@H](C(=O)N[C@@H](CCC(=O)O)C(=O)N[C@H](C(=O)N[C@@H](CC(C)C)C(=O)N[C@@H](CCC(N)=O)C(=O)N[C@@H](Cc2cnc[nH]2)C(=O)N[C@H](C(=O)N[C@H](C(=O)N[C@@H](CC(=O)O)C(=O)N[C@@H](Cc2ccc(O)cc2)C(N)=O)[C@@H](C)CC)C(C)C)[C@@H](C)CC)C(C)C)C1)C(C)C)C(=O)N[C@@H](CC(C)C)C(=O)N[C@@H](CCC(N)=O)C(=O)N[C@@H](Cc1cnc[nH]1)C(=O)N[C@H](C(=O)N[C@H](C(=O)N[C@@H](CC(=O)O)C(=O)N[C@@H](Cc1ccc(O)cc1)C(N)=O)[C@@H](C)CC)C(C)C`, the Activity in [1] stood at 40%.

`CC[C@H](C)[C@H](NC(=O)[C@H](CCC(=O)O)NC(=O)[C@@H](NC(=O)[C@H](CCCCN)NC(=O)[C@H]1CC[C@@H]([C@H](NC(=O)c2ccccc2)C(=O)N[C@@H](CCCCN)C(=O)N[C@H](C(=O)N[C@@H](CCC(=O)O)C(=O)N[C@H](C(=O)N[C@@H](CC(C)C)C(=O)N[C@@H](CCC(N)=O)C(=O)N[C@@H](Cc2cnc[nH]2)C(=O)N[C@H](C(=O)N[C@H](C(=O)N[C@@H](CC(=O)O)C(=O)N[C@@H](Cc2ccc(O)cc2)C(N)=O)[C@@H](C)CC)C(C)C)[C@@H](C)CC)C(C)C)C1)C(C)C)C(=O)N[C@@H](CC(C)C)C(=O)N[C@@H](CCC(N)=O)C(=O)N[C@@H](Cc1cnc[nH]1)C(=O)N[C@H](C(=O)N[C@H](C(=O)N[C@@H](CC(=O)O)C(=O)N[C@@H](Cc1ccc(O)cc1)C(N)=O)[C@@H](C)CC)C(C)C`: the result in series [2] was Active. The values for the Activity result in series [3], in series [5] and in series [1] were “Dose-dependent effect”, “Dose-dependent effect” and 40%, respectively. In addition, the K0.5 in series [4] was found to be 6.6 µM.

Take “Ac-LYDMNGCYSRLKELVPTLPQNRKVSKVEILQHVIDYIRDLQ-NH2”: in the series with HSMC, the Activity result was “Toxic”.

H-KVEILQHVIDYIRDLQ-OH: the outcome in the series on HSMC was inactive.

On to `CC[C@H](C)[C@H](NC(=O)[C@H](CCC(=O)O)NC(=O)[C@@H](NC(=O)[C@H](CCCCN)NC(=O)[C@H]1CC[C@@H]([C@H](NC(=O)c2cccc3c2C(=O)OC32c3ccc(O)cc3Oc3cc(O)ccc32)C(=O)O[C@@H](CCCCN)C(=O)N[C@H](C(=O)N[C@@H](CCC(=O)O)C(=O)N[C@H](C(=O)N[C@@H](CC(C)C)C(=O)N[C@@H](CCC(N)=O)C(=O)N[C@@H](Cc2cnc[nH]2)C(=O)N[C@H](C(=O)N[C@H](C(=O)N[C@@H](CC(=O)O)C(=O)N[C@@H](Cc2ccc(O)cc2)C(=O)N[C@@H](CCCCN)C(=O)N[C@@H](CCCCN)C(=O)N[C@@H](CCCCN)C(N)=O)[C@@H](C)CC)C(C)C)[C@@H](C)CC)C(C)C)C1)C(C)C)C(=O)N[C@@H](CC(C)C)C(=O)N[C@@H](CCC(N)=O)C(=O)N[C@@H](Cc1cnc[nH]1)C(=O)N[C@H](C(=O)N[C@H](C(=O)N[C@@H](CC(=O)O)C(=O)N[C@@H](Cc1ccc(O)cc1)C(=O)N[C@@H](CCCCN)C(=O)N[C@@H](CCCCN)C(=O)N[C@@H](CCCCN)C(N)=O)[C@@H](C)CC)C(C)C`, for which the Activity entry in series [6] is recorded as “Dose-dependent effect”; in series [7] it was “Active”.

With `CC[C@H](C)[C@H](NC(=O)[C@H](CCC(=O)O)NC(=O)[C@@H](NC(=O)[C@H](CCCCN)NC(=O)C1CCC(C(NC(=O)c2ccccc2)C(=O)N[C@@H](CCCCN)C(=O)N[C@H](C(=O)N[C@@H](CCC(=O)O)C(=O)N[C@H](C(=O)N[C@@H](CC(C)C)C(=O)N[C@@H](CCC(N)=O)C(=O)N[C@@H](Cc2cnc[nH]2)C(=O)N[C@H](C(=O)N[C@H](C(=O)N[C@@H](CC(=O)O)C(=O)N[C@@H](Cc2ccc(O)cc2)C(N)=O)[C@@H](C)CC)C(C)C)[C@@H](C)CC)C(C)C)C1)C(C)C)C(=O)N[C@@H](CC(C)C)C(=O)N[C@@H](CCC(N)=O)C(=O)N[C@@H](Cc1cnc[nH]1)C(=O)N[C@H](C(=O)N[C@H](C(=O)N[C@@H](CC(=O)O)C(=O)N[C@@H](Cc1ccc(O)cc1)C(N)=O)[C@@H](C)CC)C(C)C` (stereo partly drawn), the Activity in [1] stood at 40%; in series [8], 20%.

For the compound `CC[C@H](C)[C@H](NC(=O)[C@H](Cc1ccc(O)cc1)NC(=O)[C@H](CC(=O)O)NC(=O)[C@@H](NC(=O)[C@@H](NC(=O)[C@H](Cc1cnc[nH]1)NC(=O)[C@H](CCC(N)=O)NC(=O)[C@H](CC(C)C)NC(=O)[C@@H](NC(=O)[C@H](CCC(=O)O)NC(=O)[C@@H](NC(=O)[C@H](CCCCN)NC(=O)C1CCC(C(NC(=O)c2ccccc2)C(=O)N[C@@H](CCCCN)C(=O)N[C@H](C(=O)N[C@@H](CCC(=O)O)C(=O)N[C@H](C(=O)N[C@@H](CC(C)C)C(=O)N[C@@H](CCC(N)=O)C(=O)N[C@@H](Cc2cnc[nH]2)C(=O)N[C@H](C(=O)N[C@H](C(=O)N[C@@H](CC(=O)O)C(=O)N[C@@H](Cc2ccc(O)cc2)C(=O)N[C@H](C(=O)N[C@@H](CCCNC(=N)N)C(=O)N[C@@H](CC(C)C)C(=O)N[C@@H](CC(=O)O)C(=O)N[C@@H](CCC(N)=O)C(N)=O)[C@@H](C)CC)[C@@H](C)CC)C(C)C)[C@@H](C)CC)C(C)C)C1)C(C)C)[C@@H](C)CC)C(C)C)[C@@H](C)CC)C(=O)N[C@@H](CCCNC(=N)N)C(=O)N[C@@H](CC(C)C)C(=O)N[C@@H](CC(=O)O)C(=O)N[C@@H](CCC(N)=O)C(N)=O` (stereo partly drawn), the Activity in series [1] was 30%.

Values taken from ChEMBL document CHEMBL1154354, “Synthetic peptides containing a conserved sequence motif of the Id protein family modulate vascular smooth muscle cell phenotype” (Bioorg Med Chem Lett, 2009).
